SMILES strings stand for the structures.

This passage reports logP and logD results from the SangsterLogP compilation.

The first series in a line: method code SF, from Recanatgini, M.; Leoni, A.; Baraldi, G. (1991). Partition coefficients of 3-methyl-4-nitropyrazole-5-carboxamides. 16, 127-130.
Settings: not given
Regarding `Cc1ccc(NC(=O)c2[nH]nc(C)c2[N+](=O)[O-])cc1`, the logP (as a rule, the decadic logarithm of the partition coefficient of the neutral form, usually between octanol and water) is 2.34.

Staying with this series, now noted: pH 1.0.
As to `Cc1n[nH]c(C(=O)NCc2ccccc2)c1[N+](=O)[O-]`, the pH-dependent lipophilicity (logD) – broadly, lipophilicity at a set pH, counting ionised and neutral species – came out at 1.49.

For the molecule `CCCCCCCCNC(=O)c1[nH]nc(C)c1[N+](=O)[O-]`, the pH-dependent lipophilicity (logD) stood at 3.48.

On to `Cc1n[nH]c(C(=O)N(C)C2CCCCC2)c1[N+](=O)[O-]`, for which the logD was found to be 1.68.

As to `CCCCNC(=O)c1[nH]nc(C)c1[N+](=O)[O-]`, the pH-dependent lipophilicity (logD) came to 1.27.

In turn, `Cc1n[nH]c(C(=O)NC23CC4CC(CC(C4)C2)C3)c1[N+](=O)[O-]` yielded a log distribution coefficient (logD) of 2.83.

The molecule `Cc1n[nH]c(C(=O)NC2CCCCC2)c1[N+](=O)[O-]` displayed a log distribution coefficient (logD) of 1.71.

As for `Cc1n[nH]c(C(N)=O)c1[N+](=O)[O-]`, the pH-dependent lipophilicity (logD) was -0.38.

The molecule `CCCCCCCCCCNC(=O)c1[nH]nc(C)c1[N+](=O)[O-]` yielded a logD of 4.48.

The molecule `Cc1n[nH]c(C(=O)N2CCCC2)c1[N+](=O)[O-]` registered a logD of 0.25.

Molecule `CCNC(=O)c1n[nH]c(C)c1[N+](=O)[O-]` registered a logD of 0.13.

In turn, `CCCNC(=O)c1[nH]nc(C)c1[N+](=O)[O-]` registered a logD of 0.65.

In the case of `Cc1n[nH]c(C(=O)N(C)Cc2ccccc2)c1[N+](=O)[O-]`, the logD is 1.65.

`Cc1n[nH]c(C(=O)NCCc2ccccc2)c1[N+](=O)[O-]` returned a log distribution coefficient (logD) of 1.82.

Molecule `CCCCCCNC(=O)c1[nH]nc(C)c1[N+](=O)[O-]` returned a pH-dependent lipophilicity (logD) of 2.46.

On to `Cc1[nH]nc(C(=O)NC2CC2)c1[N+](=O)[O-]`, for which the log distribution coefficient (logD) is 0.25.

In turn, `Cc1n[nH]c(C(=O)N2CCCCCC2)c1[N+](=O)[O-]` yielded a pH-dependent lipophilicity (logD) of 1.15.

As for `Cc1[nH]nc(C(=O)N2CCCCC2)c1[N+](=O)[O-]`, the log distribution coefficient (logD) came to 0.79.

Molecule `CNC(=O)c1n[nH]c(C)c1[N+](=O)[O-]` displayed a pH-dependent lipophilicity (logD) of -0.23.

Regarding `Cc1n[nH]c(C(=O)NC2CCCC2)c1[N+](=O)[O-]`, the logD was 1.24.

`Cc1n[nH]c(C(=O)Nc2ccccc2)c1[N+](=O)[O-]` returned a logD of 1.81.
